# Source: patent publication US20100310542A1, “Pharmaceutical Compositions for treating wouds and related methods” (HEALOR LTD., priority 2007, published 2010)
# * marks the point of attachment. Myristoyl = CCCCCCCCCCCCCC(=O)*
# Assays:
# [1] = system: full thickness skin incisions; assay: incision wound healing in mice, percent of healed wounds; format: in vivo, C57BL/6J mice; details: agent alone, all formulations (A-C); daily, 7 days; vs groups treated with formulations alone; listed as pseudosubstrate peptide
# Experimental: In vivo incision wound generation and inducement of inflammation: Full thickness (20 mm long) skin incisions were performed on the upper back of anesthetized C57BL/6J mice (6 mice per group). […] the incision, wounds were treated daily with insulin (10^−6 M; 0.1 units/ml); pseudosubstrate PKCα peptide, 1 μM (PKCα inhibitor); or Insulin+PKCα inhibitor (Myr-pseudosubstrate PKCα peptide, 1 μM and insulin 0.1 units) applied directly on the wounds in the various formulations (Formulations A-C) as described above. After 7 days, wounds were excised and the percentage of healed wounds was evaluated by examining the morphology and histology of the wounds. Results are presented as percent of healed wounds relative to the total number of wounds per group. […] Full thickness (20 mm long) skin incisions were performed on the upper back of anesthetized C57BL/6J mice (6 mice per group). […] After 7 days, wounds were excised and the percentage of healed wounds was evaluated by examining the morphology and histology of the wounds. […]
# [2] = system: full thickness skin incisions; assay: severe inflammatory burden at incision wounds in mice; format: in vivo, C57BL/6J mice; details: peptide 1 μM daily, 7 days
# Experimental: Full thickness (20 mm long) skin incisions were performed on the upper back of anesthetized C57BL/6J mice (6 mice per group). Following incisions, wounds were treated daily with Myr-pseudosubstrate PKCα peptide, 1 μM applied directly on the wounds in the various formulations (Formulation A-C) described above.
# (§1) After 7 days, wounds were excised and subjected to histology and immunohistochemistry. Inflammatory burden was considered severe when at least 2 of the 3 following parameters were present at the wound gap: (1) Abscess formation at the wounded area, (2) excessive leukocytosis (>100 cells in a fixed field×200), (3) high WBC/RBC ratio in blood vessels where >20% of WBC content within the blood vessels is shown in a fixed field (×200). Results are summarized and presented as percent of wounds with severe inflammation relative to the number of wounds in the group.
# as §1, with “Full thickness (20 mm long) skin incisions were performed on the upper back of anesthetized C57BL/6J mice (6 mice per group). Following incision, wounds were treated daily with PKCα inhibitor (Pseudosubstrate PKCα peptide, 1 μM) applied directly to the wounds in the various formulations (Formulation A-C) described above. After” for “After”, “per total” for “relative to the number of”
# PKCα = PKCα activity assay in keratinocytes overexpressing PKCα; format: cell-based, murine; details: Formulation A; peptide 1 μM for 15 minutes; PKCα overexpressing cells; relative to controls
# Experimental: Transduction of keratinocytes with PKC isoform genes: The culture medium was aspirated and keratinocyte cultures were infected with PKC recombinant adenoviruses encoding specific PKC isoforms such as PKCα for one hour. The cultures were then washed twice with MEM and re-fed. Ten hours post-infection cells were transferred to serum-free low Ca^2+-containing MEM for 24 hours.
# PKC activity: Specific PKC activity was determined in freshly prepared immunoprecipitates from keratinocyte cultures following appropriate treatments. These lysates were prepared in RIPA buffer without NaF. Activity was measured using the SignaTECT Protein Kinase C Assay System (Promega, Madison, Wis., USA) according to the manufacturer's instructions. PKCα pseudosubstrate was used as the substrate in these studies.
# PKC immunokinase assay: Purified and standardized PKC isozymes were kindly supplied by Dr. P. Blumberg (NCl, NIH, U.S.) and Dr. Marcello G. Kazanietz (University of Pennsylvania, School of Medicine). Primary keratinocytes were harvested in 500 μl […] (1% Triton-X 100, 10 μg/ml aprotinin and leupeptin, 2 μg/ml pepstatin, 1 mM PMSF, 1 mM EDTA, 200 μM […], 10 mM NaF in 1×PBS). Lysates were incubated at 4° C. for 30 minutes, and spun at 16,000×g for 30 minutes at 4° C. Supernatants were transferred to a fresh tube. […]
# keratin 1 = keratin 1 expression by Western blot in keratinocytes; format: cell-based, mice; details: visfatin 0.0001 μg/ml or L-alpha 100 ng/ml, 24 hours after calcium-induced differentiation
# Description: Medium A and B are both EMEM eagle's minimal essential medium from Biological Industries (Israel) containing 8% CHELEX™ treated fetal bovine serum. CHELEX™ is a strong chelator which binds free Ca^2+ and Mg^2+ ions to prevent these ions from being bioavailable to the cultured cells.
# Primary skin keratinocytes isolated from the tails of adult mice (7-10 months up to 2 years) were maintained in medium A (MEM) as described above. After 5 days in (medium A), the growth medium in half of the cultured plates was replaced with medium B (as described above)
# Next visfatin or L-alpha were each individually added to cells cultured in medium A (FIG. 19A) and cells cultured in medium B (FIG. 19B) as indicated in FIG. 19. The final concentration in the culture medium of visfatin was 0.0001 μg/ml visfatin. The final concentration in the culture medium of L-alpha was 100 ng/ml.
# Cell differentiation was induced by elevating calcium from 0.05 mM to 0.12 mM as described above. Twenty-four (24) hours after differentiation cells were harvested and Western Blot analysis was performed. […] Keratin 1 expression was then quantified using standard densitometric methods […]
# Cell differentiation was then induced by elevating calcium levels in the culture medium from 0.05 mM to 0.12 mM. […] Expression was assessed using standard Western blotting and densitometry techniques.
Molecule,healing of wounds (percent of healed wounds) [1],severe inflammation (percent of wounds with severe inflammation) ([2]; Formulation A),severe inflammation (percent of wounds with severe inflammation) ([2]; Formulation B),severe inflammation (percent of wounds with severe inflammation) ([2]; Formulation C),inhibition of PKCα activity (PKCα),expression of keratin 1 (keratin 1; medium A (no KCl)),expression of keratin 1 (keratin 1; medium B (KCl 0.4 mg/ml))
"Myr*-Phe-Ala-Arg-Lys-Gly-Ala-Leu-Arg-Gln-OH (Myristoyl-FARKGALRQ-OH; SMILES CCCCCCCCCCCCCC(=O)N[C@@H](Cc1ccccc1)C(=O)N[C@@H](C)C(=O)N[C@@H](CCCNC(=N)N)C(=O)N[C@@H](CCCCN)C(=O)NCC(=O)N[C@@H](C)C(=O)N[C@@H](CC(C)C)C(=O)N[C@@H](CCCNC(=N)N)C(=O)N[C@@H](CCC(N)=O)C(=O)O) [PKCα inhibitor, myristoylated peptide corresponding to the pseudosubstrate region of PKCα, CAS 147217-25-2]",did not promote wound healing efficacy,significant reduction in severe inflammation,No reduction in inflammatory burden,No reduction in inflammatory burden,able to significantly inhibit PKCα activity,,
"CCCCCCCCCCCCCCCC(=O)OC[C@H](COP(=O)(O)OC1C(O)C(OP(=O)(O)O)C(OP(=O)(O)O)C(OP(=O)(O)O)C1O)OC(=O)CCCCCCCCCCCCCCC.N.N.N.N.N.N.N (stereo partly drawn) [L-alpha, L-α-Phosphatidylinositol-3,4,5-trisphosphate, Dipalmitoyl-, Heptaammonium Salt]",,,,,,decreased relative to the control sample,not significantly altered
